Experiments:
p38α = p38α (Homo sapiens, UniProt Q16539); assay: SAPK2a Kinase Activity (p38α); type: biochemical
Protocol: SAPK2a Kinase Activity: In a final reaction volume of 25 μl, SAPK2a (h) (5-10 mU) is incubated with 25 mM Tris pH 7.5, 0.02 mM EGTA, 0.33 mg/ml myelin basic protein, 10 mM MgAcetate and [γ-^33P-ATP] (specific activity approx. 500 cpm/pmol, concentration as required). The reaction is initiated by the addition of the MgATP mix. After incubation for 40 minutes at room temperature, the reaction is stopped by the addition of 5 μl of a 3% phosphoric acid solution. 10 μl of the reaction is the spotted onto a P30 filtermat and washed three times for 5 minutes in 75 mM phosphoric acid and once in methanol prior to drying and scintillation counting.

EphA1 = EphA1 (Homo sapiens, UniProt P21709); assay: Protein kinase inhibition, EphA1; type: biochemical; details: Rate (μM) 2, read-out: % Control
Chain of EphA1 (P21709 26-976): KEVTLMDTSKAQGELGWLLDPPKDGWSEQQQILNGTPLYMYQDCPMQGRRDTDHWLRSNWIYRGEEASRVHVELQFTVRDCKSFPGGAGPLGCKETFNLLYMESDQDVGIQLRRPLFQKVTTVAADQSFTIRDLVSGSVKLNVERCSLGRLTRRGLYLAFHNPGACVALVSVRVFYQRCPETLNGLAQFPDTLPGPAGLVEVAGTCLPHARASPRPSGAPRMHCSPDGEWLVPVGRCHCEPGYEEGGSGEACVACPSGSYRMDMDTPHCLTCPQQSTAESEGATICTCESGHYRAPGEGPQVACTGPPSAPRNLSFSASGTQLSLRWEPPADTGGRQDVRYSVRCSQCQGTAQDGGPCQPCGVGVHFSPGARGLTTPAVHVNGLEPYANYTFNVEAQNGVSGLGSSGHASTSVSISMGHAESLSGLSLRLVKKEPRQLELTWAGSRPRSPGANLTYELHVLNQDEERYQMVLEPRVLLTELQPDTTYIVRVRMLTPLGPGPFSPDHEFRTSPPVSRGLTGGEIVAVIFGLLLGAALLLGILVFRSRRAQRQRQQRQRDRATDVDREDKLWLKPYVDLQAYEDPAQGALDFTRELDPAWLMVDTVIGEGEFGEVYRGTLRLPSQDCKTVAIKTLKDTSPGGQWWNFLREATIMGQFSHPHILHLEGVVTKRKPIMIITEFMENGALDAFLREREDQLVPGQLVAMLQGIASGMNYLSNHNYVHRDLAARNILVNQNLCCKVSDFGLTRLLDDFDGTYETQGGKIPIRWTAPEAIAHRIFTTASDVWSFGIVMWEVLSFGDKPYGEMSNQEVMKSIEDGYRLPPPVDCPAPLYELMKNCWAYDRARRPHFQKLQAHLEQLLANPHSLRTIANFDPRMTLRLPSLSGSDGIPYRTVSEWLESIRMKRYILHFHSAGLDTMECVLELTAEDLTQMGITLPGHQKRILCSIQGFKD

Abl1 = assay: Kinase activity at ATP Km,app, Abl1; type: biochemical, mouse; details: compound 2 μM
Protocol: Abl Kinase activity: In a final reaction volume of 25 μL, Able (m) (5-10 mU) is incubated with […] pH 7.0, 0.2 mM EDTA, 50 μM EAIYAAPFAKKK, 10 mM MgAcetate and [γ-^33P-ATP] (specific activity approx. 500 cpm/pmol, concentration as required). The reaction is initiated by the addition of the MgATP mix. After incubation for 40 minutes at room temperature, the reaction is stopped by the addition of 5 μL of a 3% phosphoric acid solution. 10 μL of the reaction is then spotted onto a P30 filtermat and washed three times for 5 minutes in 75 mM phosphoric acid and once in methanol prior to drying and scintillation counting.

Akt1 = Akt1 (Homo sapiens, UniProt P31749); assay: Kinase activity at ATP Km,app, Akt1; type: biochemical; details: compound 2 μM
Chain of Akt1 (P31749 whole entry, species assumed): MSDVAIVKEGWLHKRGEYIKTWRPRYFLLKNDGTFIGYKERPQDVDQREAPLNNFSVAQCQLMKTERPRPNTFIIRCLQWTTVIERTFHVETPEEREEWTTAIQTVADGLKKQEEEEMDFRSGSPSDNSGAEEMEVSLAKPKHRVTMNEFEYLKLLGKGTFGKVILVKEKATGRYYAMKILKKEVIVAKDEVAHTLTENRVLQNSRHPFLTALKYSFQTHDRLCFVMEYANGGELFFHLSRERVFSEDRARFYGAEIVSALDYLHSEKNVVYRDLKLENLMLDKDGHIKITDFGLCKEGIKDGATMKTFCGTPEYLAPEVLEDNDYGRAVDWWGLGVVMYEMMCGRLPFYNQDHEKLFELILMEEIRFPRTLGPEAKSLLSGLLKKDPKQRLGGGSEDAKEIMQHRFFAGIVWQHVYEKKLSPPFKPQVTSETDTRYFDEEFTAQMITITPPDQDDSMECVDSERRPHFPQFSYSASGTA

EGFR = EGFR (Homo sapiens, UniProt P00533); assay: Kinase activity at ATP Km,app, EGFR; type: biochemical; details: compound 2 μM
Chain of EGFR (P00533 25-1210, species assumed): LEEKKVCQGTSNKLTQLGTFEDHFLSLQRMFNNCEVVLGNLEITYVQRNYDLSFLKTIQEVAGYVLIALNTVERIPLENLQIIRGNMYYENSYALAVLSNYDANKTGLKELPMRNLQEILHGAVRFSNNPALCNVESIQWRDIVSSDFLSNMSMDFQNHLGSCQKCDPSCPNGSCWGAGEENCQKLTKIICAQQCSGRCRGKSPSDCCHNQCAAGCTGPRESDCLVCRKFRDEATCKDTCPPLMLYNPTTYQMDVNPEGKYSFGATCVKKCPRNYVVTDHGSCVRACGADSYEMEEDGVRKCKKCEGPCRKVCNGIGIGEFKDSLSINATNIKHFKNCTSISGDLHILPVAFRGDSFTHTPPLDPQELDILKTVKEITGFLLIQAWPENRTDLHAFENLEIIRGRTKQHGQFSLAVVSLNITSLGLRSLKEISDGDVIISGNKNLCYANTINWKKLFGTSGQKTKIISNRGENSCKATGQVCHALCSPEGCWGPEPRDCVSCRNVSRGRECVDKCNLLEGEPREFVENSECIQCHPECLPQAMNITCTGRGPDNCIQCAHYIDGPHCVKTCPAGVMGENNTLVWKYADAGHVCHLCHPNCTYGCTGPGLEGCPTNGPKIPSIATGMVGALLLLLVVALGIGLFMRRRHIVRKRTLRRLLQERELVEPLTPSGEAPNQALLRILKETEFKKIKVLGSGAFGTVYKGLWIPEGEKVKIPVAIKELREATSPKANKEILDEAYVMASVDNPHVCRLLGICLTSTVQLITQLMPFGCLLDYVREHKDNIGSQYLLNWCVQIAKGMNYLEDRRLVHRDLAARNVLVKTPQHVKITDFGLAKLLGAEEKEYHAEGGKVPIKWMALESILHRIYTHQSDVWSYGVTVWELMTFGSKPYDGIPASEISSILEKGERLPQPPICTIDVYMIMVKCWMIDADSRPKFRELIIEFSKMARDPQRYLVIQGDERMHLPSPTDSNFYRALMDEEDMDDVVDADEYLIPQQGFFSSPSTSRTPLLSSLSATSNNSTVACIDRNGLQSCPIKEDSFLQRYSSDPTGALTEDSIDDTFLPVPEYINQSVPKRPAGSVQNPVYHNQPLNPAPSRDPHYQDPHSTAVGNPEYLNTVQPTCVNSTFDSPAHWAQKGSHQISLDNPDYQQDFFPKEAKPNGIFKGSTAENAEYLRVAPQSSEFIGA

FGFR1 = FGFR1 (Homo sapiens, UniProt P11362); assay: Kinase activity at ATP Km,app, FGFR1; type: biochemical; details: compound 2 μM
Chain of FGFR1 (P11362 22-822, species assumed): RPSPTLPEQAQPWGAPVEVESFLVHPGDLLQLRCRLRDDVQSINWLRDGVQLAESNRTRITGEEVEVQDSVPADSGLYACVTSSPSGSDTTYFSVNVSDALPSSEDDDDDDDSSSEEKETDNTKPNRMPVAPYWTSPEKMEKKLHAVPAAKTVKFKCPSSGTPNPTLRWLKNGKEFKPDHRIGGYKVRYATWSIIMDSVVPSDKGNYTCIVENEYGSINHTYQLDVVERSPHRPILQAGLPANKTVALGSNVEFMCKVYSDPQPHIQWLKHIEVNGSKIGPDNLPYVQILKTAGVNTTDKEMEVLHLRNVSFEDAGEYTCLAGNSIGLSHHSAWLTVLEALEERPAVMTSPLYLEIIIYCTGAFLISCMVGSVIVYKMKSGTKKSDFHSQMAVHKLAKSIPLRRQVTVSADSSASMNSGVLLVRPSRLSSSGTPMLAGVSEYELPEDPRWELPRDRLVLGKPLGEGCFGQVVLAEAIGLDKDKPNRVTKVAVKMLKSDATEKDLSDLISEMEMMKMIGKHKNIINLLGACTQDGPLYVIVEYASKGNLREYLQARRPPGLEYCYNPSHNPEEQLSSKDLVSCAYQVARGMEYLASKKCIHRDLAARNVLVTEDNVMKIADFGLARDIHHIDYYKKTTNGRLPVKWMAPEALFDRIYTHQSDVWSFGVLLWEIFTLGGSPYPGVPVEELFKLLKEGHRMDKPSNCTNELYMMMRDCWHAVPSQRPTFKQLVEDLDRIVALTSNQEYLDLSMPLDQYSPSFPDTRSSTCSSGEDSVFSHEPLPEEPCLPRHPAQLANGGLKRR

IRAK4 = molecular target: T1, IRAK4 (Homo sapiens, UniProt Q9NWZ3); assay: Kinase activity at ATP Km,app, IRAK4; type: biochemical; details: compound 2 μM
T1 sequence (Q9NWZ3 1-460): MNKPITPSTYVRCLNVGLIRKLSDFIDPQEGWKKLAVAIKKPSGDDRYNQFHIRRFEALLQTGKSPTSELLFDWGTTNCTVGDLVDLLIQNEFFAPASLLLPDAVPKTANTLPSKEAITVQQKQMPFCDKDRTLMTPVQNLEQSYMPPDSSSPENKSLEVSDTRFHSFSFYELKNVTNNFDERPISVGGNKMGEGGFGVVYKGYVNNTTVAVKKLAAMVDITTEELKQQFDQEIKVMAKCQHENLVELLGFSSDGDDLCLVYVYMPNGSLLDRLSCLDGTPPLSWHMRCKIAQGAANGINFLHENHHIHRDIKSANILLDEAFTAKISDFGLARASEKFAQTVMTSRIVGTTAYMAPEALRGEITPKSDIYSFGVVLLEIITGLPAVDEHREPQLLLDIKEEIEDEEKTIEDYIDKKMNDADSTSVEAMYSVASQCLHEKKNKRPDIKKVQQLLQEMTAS

MAPKAP-K2 = MAPKAP-K2 (Homo sapiens, UniProt P49137); assay: Kinase activity at ATP Km,app, MAPKAP-K2; type: biochemical; details: 40 min, compound 2 μM
Chain of MAPKAP-K2 (P49137 whole entry): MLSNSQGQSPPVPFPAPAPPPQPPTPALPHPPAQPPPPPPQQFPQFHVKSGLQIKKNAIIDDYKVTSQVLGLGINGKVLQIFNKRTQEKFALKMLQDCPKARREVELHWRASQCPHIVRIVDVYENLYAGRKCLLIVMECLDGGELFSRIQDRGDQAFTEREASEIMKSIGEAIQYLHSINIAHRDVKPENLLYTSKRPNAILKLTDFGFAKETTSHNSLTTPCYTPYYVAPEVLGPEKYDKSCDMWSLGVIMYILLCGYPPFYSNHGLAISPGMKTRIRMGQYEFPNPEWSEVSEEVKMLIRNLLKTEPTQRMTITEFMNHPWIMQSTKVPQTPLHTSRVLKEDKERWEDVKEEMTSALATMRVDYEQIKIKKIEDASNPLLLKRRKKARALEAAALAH
Protocol: MAPKAP-K2 Kinase Activity: In a final reaction volume of 25 μl, MAPKAP-K2 (h) (5-10 mU) is incubated with 50 mM Na-β-glycerophosphate pH 7.5, 0.1 mM EGTA, […] KKLNRTLSVA, 10 mM MgAcetate and [γ-^33P-ATP] (specific activity approx. 500 cpm/pmol, concentration as required). The reaction is initiated by the addition of the MgATP mix. After incubation for 40 minutes at room temperature, the reaction is stopped by the addition of 5 μl of a 3% phosphoric acid solution. 10 μl of the reaction is then spotted onto a P30 filtermat and washed three times for 5 minutes in 75 mM phosphoric acid and once in methanol prior to drying and scintillation counting.

Src = Src (Homo sapiens, UniProt P12931); assay: Kinase activity at ATP Km,app, Src; type: biochemical; details: 40 min, compound 2 μM
Chain of Src (P12931 whole entry): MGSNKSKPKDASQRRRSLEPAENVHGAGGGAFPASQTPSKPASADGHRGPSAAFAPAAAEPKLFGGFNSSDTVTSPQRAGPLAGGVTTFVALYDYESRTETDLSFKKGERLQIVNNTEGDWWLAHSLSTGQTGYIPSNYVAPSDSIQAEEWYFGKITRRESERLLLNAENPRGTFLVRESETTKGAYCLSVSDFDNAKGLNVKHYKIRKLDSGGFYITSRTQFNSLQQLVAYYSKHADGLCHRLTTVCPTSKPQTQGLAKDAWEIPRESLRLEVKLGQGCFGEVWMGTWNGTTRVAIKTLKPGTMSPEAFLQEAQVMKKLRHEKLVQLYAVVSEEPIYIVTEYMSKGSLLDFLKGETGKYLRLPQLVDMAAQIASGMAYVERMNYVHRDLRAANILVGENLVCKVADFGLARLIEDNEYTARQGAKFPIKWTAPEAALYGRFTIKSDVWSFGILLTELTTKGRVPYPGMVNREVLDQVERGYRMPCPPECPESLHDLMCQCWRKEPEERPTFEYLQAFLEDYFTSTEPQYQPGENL
Protocol: cSRC Kinase Activity: In a final reaction volume of 25 μl, cSRC (h) (5-'0 mU) is incubated with 8 mM MOPS pH 7.0, 0.2 mM EDTA, 250 μM KVEKIGEGTYGVVYK (Cdc2 peptide), 10 mM MgAcetate and [γ-^33P-ATP] (specific activity approx. 500 cpm/pmol, concentratin as required). The reaction is initiated by the addition of the MgATP mix. After incubation for 40 minutes at room temperature, the reaction is stopped by the addition of 5 μl of a 3% phosphoric acid solution. 10 μl of the reaction is then spotted onto a P30 filtermat and washed three times for 5 minutes in 75 mM phosphoric acid and once in methanol prior to drying and scintillation counting.

MCF-7 = assay: Cell growth inhibition, MCF-7; type: cell-based; details: Homo sapiens, MCF7; MCF-7 cell line; 24 hours; viability by WST-1 or Alamar Blue
Protocol: (§1) The compounds of Examples 1 and 2 were also tested for cell growth inhibition activity a gains two cell lines, MCF-7 and U266. […], suspended in RPMI 1640 media, supplemented with 10% FBS, were pipetted into 96-well plates at a density of 10,000 cells per milliliter in a volume of […] per well. Cells were allowed to equilibrate overnight at 37 C in 5% CO2. Cells were then incubated in the presence of the test compound at a concentrations ranging from 0.03 μM to 10 μM (at ½ log dilutions) for 24 hours. After the incubation period, cells were assessed for viability using either WST-1 (Biovision) or Alamar Blue (BioSourse). Values from treated cells were compared to values from control cells and values expressed as percent control.

U266 = assay: Cell growth inhibition, U266; type: cell-based; details: Homo sapiens, U-266; U266 cell line; 24 hours; viability by WST-1 or Alamar Blue
Protocol: as §1

Chain of p38α (Q16539 whole entry): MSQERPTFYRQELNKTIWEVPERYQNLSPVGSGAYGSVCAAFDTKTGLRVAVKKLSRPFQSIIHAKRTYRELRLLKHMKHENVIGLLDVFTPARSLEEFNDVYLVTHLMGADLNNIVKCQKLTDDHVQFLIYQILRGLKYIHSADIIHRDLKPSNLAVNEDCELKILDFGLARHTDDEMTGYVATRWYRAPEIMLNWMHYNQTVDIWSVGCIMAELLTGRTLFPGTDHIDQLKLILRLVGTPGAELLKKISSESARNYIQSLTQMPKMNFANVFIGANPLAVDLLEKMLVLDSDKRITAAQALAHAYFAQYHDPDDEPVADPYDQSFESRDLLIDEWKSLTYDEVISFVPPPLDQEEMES

| % inhibition (p38α; P38a, Human, Rate (μM) 2) | % Inhibition at 2 μm (p38α; p38α, compound at 2 μm) | remaining activity at 2 µM (EphA1) [%] | % Inhibition at ATP Km,app (Abl1) | inhibition at 2 µM (Akt1) [%] | % Inhibition at ATP Km,app (EGFR) | inhibition at 2 µM (FGFR1) [%] | % Inhibition at ATP Km,app (IRAK4) | inhibition at 2 µM (MAPKAP-K2) [%] | inhibition at 2 µM (Src) [%] | IC50 (MCF-7) [µM] | IC50 (U266) [µM] | Compound |
| --- | --- | --- | --- | --- | --- | --- | --- | --- | --- | --- | --- | --- |
| 76-100% | 76-100% | 76 to 100 | – | – | – | – | – | – | – | – | – | CC(C)(C)c1cc(C(=O)N2CCS(=O)(=O)CC2)c(NC(=O)Nc2ccc(Oc3ccncc3)cc2)s1 [Example 3, 1-[5-tert-Butyl-3-(1,1-dioxo-1λ^6-thiomorpholine-4-carbonyl)thiophen-2-yl]-3-[4-(pyridin-4-yloxy)phenyl]urea] |
| – | – | – | 0-25% | 0 to 25 | 0-25% | 0 to 25 | 0-25% | 0 to 25 | 0 to 25 | < 10 | < 10 | CC(C)(C)c1cc(C(=O)N2CCNS(=O)(=O)CC2)c(NC(=O)Nc2ccc(Oc3ccncc3)cc2)s1 [Example 1, 1-(5-tert-Butyl-3-(1,1-dioxo-1λ^6-[1,2,5]thiadiazepane-5-carbonyl)thiophen-2-yl)-3-(4-(pyridin-4-yloxy)phenyl)urea] |
| – | – | – | 0-25% | 0 to 25 | 0-25% | 26 to 50 | 0-25% | 0 to 25 | 0 to 25 | – | – | CC(C)(C)c1cc(C(=O)N2CCNC(=O)CC2)c(NC(=O)Nc2ccc(Oc3ccncc3)cc2)s1 [Example 4, 1-(5-tert-Butyl-3-(5-oxo-[1,4]diazepane-1-carbonyl)thiophen-2-yl)-3-(4-(pyridin-4-yloxy)phenyl)urea] |
| – | – | – | 0-25% | 0 to 25 | 0-25% | 0 to 25 | 0-25% | 0 to 25 | 0 to 25 | < 10 | < 10 | CC(C)(C)c1cc(C(=O)N2CCNC(=O)C2)c(NC(=O)Nc2ccc(Oc3ccncc3)cc2)s1 [Example 2, 1-(5-tert-Butyl-3-(3-oxo-piperazine-1-carbonyl)thiophen-2-yl)-3-(4-(pyridin-4-yloxy)phenyl)urea] |
